Source: patent publication US4602109A, “Novel pesticidal phenoxyphenyl and phenoxypyridyl benzoyl ureas and process for preparation” (Union Carbide Corporation, priority 1984, dated 1986)
In brackets after ≈: the same amount, converted by molar mass. Read-outs that look alike come from different tables or passages of the source.

Experiments:
Type in all cases: in vivo
[1] = system: southern armyworm (Spodoptera eridania); assay: Southern Armyworm Leaf Spray Bait Test; conditions: 120 h, read-out: Percent Control after 5 days
Procedure: Suspensions of the test compounds were prepared by dissolving one gram of compound in 50 milliliters of acetone in which had been dissolved 0.1 gram (10 percent of the weight of compound) of an alkylphenoxy polyethoxyethanol surfactant, as an emulsifying or dispersing agent. The resulting solution was mixed into 150 milliliters of water to give roughly 200 milliliters of a suspension containing the compound in finely divided form. The thus-prepared stock suspension contained 0.5 percent by weight of compound.
Certain of the test compounds were also prepared by dissolving 375 mg of compound in 7.5 ml of dimethylformamide. Fifteen ml of acetone containing 37.5 mg (10 percent of the weight of test compound) of an alkylphenoxy polyethoxyethanol surfactant, as a wetting/emulsifying/dispersing agent was added to the dimethylformamide solution. Fifty-two and a half ml of water was mixed into the dimethylformamide-acetone mixture to give roughly 75 ml of a suspension containing the compound in solution or in finely divided form. The thus prepared stock suspension contained 0.5 percent by weight of compound. The test concentrations in parts per million by weight employed in the tests described hereinbelow were obtained by appropriate dilutions of the stock suspension with water. The test procedures were as follows:
Larvae of the southern armyworm (Spodoptera eridania, (Cram.), reared on Tendergreen bean plants at a temperature of 80°±5° F. and a relative humidity of 50±5 percent, constituted the test insects.
The test compounds were formulated by diluting the stock suspension with water to give a suspension containing 500 parts of test compound per million parts of final formulation. Potted Tendergreen bean plants of standard height and age were placed on a revolving turntable and sprayed with 100-110 milliliters of test compound formulation by use of a DeVilbiss spray gun set at 40 psig air pressure. This application, which lasted 25 seconds, was sufficient to wet plants to run-off. As a control, 100-110 milliliters of a water-acetone-emulsifier solution containing no test compound were also sprayed on infested plants. When dry, the paired leaves were separated and each one was placed in a 9 centimeter Petri dish lined with moistened filter paper. Five randomly selected larvae were introduced into each dish and the dishes were closed. The closed dishes were labeled and held at 80°-85° F. for five days. Although the larvae could easily consume the whole leaf within twenty-four hours, no more food was added. Larvae which were unable to move the length of the body, even upon stimulation by prodding, were considered dead. Percent mortality was recorded for various concentration levels.

H. Zea = assay: Comparison against Heliothis spp: H. Zea
H. Virecens = assay: Comparison against Heliothis spp: H. Virecens; conditions: read-out: LD50, H. Virecens
[2] = Helicoverpa zea; read-out: LD50, H. Zea

O=C(NC(=O)c1c(F)cccc1F)Nc1ccc(Cl)cc1 [1-(4-chlorophenyl)-3-(2,6-difluorobenzoyl)urea, reference compound]
mortality at 5 ppm [1]: 40%
mortality at 10 ppm [1]: 100%
LC50 (H. Zea; Helicoverpa zea, read-out: LD50, H. Zea): 500 µg/mL (≈ 1610 µM)
LC50 (H. Virecens): 31 µg/mL (≈ 99.8 µM)

O=C(NC(=O)c1c(F)cccc1F)Nc1cc(Cl)c(Oc2ccc(S(=O)(=O)c3ccc(Cl)cc3)cc2)c(Cl)c1 [Example 2, 1-(2,6-Difluorobenzoyl)-3-(3,5-dichloro-4-[4-(4-chlorophenylsulfonyl)phenoxy]phenyl)urea]
mortality at 3 ppm [1]: 100%
mortality at 6 ppm [1]: 90%
mortality at 12 ppm [1]: 100%
LC50 (H. Zea; [2]): 12.5 µg/mL (≈ 20.4 µM)
LC50 (H. Virecens): 8.5 µg/mL (≈ 13.9 µM)

O=C(NC(=O)c1c(F)cccc1F)Nc1ccc(Oc2ccc(S(=O)(=O)c3ccc(Cl)cc3)cc2)c(Cl)c1 [Example 3, 1-(2,6-difluorobenzoyl)-3-(3-chloro-4-[4-((4-chloro-phenylsulfonyl))-phenoxy]phenyl)urea]
mortality at 3 ppm [1]: 56%
mortality at 6 ppm [1]: 75%
mortality at 12 ppm [1]: 100%
LC50 (H. Zea; [2]): 31 µg/mL (≈ 53.7 µM)
LC50 (H. Virecens): 31 µg/mL (≈ 53.7 µM)

O=C(NC(=O)c1c(F)cccc1Cl)Nc1ccc(Oc2ccc(S(=O)(=O)c3ccc(Cl)cc3)cc2)cc1 [Example 9, 1-(2-chloro-6-fluorobenzoyl)-3-(4-[4-(4-chloro-phenylsulfonyl)phenoxy]-phenyl)urea]
mortality at 1.5 ppm [1]: 60%
mortality at 6 ppm [1]: 100%
mortality at 20 ppm [1]: 100%
